Results on ten compounds are retold here after patent US20190119196A1, “COMPOUNDS FOR THE TREATMENT OF […]” (priority 2016, published 2019).

Test [1] has as its system L6-myotubes. The test is described as follows: Glucose uptake in differentiated L6-myotubes (3H-2-deoxy-glucose). It is filed as cell-based. As to conditions: read-out: Biological example 1: glucose uptake, % increase over the basal level. The procedure: (§1) L6-myoblasts were grown in Dulbecco's Modified Eagle's Medium (DMEM) containing 4,5 g/I glucose supplemented with 10% fetal bovine serum, 2 mM L-Glutamine, 50 U/ml penicillin, 50 μg/ml streptomycin and 10 mM HEPES. Cells were plated at 1×10^5 cells per ml in 24-well plates. After reaching 90% confluence the cells were grown in medium containing 2% FBS for 7 days where upon cells differentited into myotubes.
Differentiated L6-myotubes were serum-starved over night in medium containing 0.5% fatty-acid free BSA and stimulated with agonist, […], glucose free medium or PBS and another portion of agonist was added to glucose free medium. […] Cell lysate was mixed with scintillation buffer (Emulsifier Safe, Perkin Elmer and radioactivity detected in a β-counter (Tri-Carb 2800TR, Perkin Elmer). The numerical values in the table are given as % increase over the basal level.

The test system of test [2] is L6-myotubes. The test is described as follows: Measurement of intracellular cAMP levels (alpha screen cAMP kit). As to conditions: agonist final concentration 1×10^−5, 15 min; differentiated cells; 1 mM IBMX. The class given is cell-based. The procedure:
as §1
Differentiated cells were serum-starved over night and stimulated with agonist, final concentration 1×10−^5, for 15 min in stimulation buffer (HBSS supplemented with 1% BSA, 5 mM HEPES and 1 mM IBMX, pH 7,4) The medium was then aspirated and to end the reaction 100 μL of 95% EtOH was added to each well of a 24-well plate and cells were kept in −20° C. over night. The EtOH was let to evaporate and 500 μL of lysis buffer (1% BSA, 5 mM HEPES and 0,3% Tween-20, pH 7.4) was added to each well before put in −80° C. for 30 min and then kept in −20° C. Intracellular cAMP levels were detected using an alpha screen cAMP kit (6760635D from Perkin Elmer). The numerical values in the table are given as % increase over the basal level.
Background: Cyclic AMP is a second messenger, typically raised through Gs and lowered through Gi signalling.

The target in a further test is T1, human β2-adrenoceptor (Homo sapiens, UniProt P07550).
T1 construct: expressed in transfected cells
The test is described as follows: 3H-CGP 12177 whole cell β2 binding. Here is the method: ^3H-CGP 12177 Whole Cell β2 Binding
Chinese Hamster Ovary (CHO) cells stably expressing the human β2-adrenoceptor were grown in Dulbecco's modified Eagle's medium nutrient mix F12 (DMEM/F12) containing 10% fetal calf serum and 2 mM L-glutamine in a 37° C. humidified 5% CO2:95% air atmosphere. The cells were seeded (100 000 cells/mL) into white-sided, clear-bottomed 96-well isoplates and allowed to grow to confluence for the following day's experiment. Next day, the media was removed from each well of the isoplate. Aliquots of the test compounds (10^−2 M in DMSO) were diluted in DMEM/F12 containing 2 mM L-glutamine (serum-free media) to final concentration ranges of 10^−4 M to 10^−10 M and added to each well. The radioligand ^3H-CGP 12177 was diluted in the same medium (˜1 nM final well concentration) and added to each well. Propranolol and CGP 12177 (10 μM) were used to measure non-specific binding. The cells were incubated for 2 hours at 37° C. After incubation, the cells were washed twice by the addition and removal of 200 μL ice-cold phosphate-buffered saline (PBS). Cells were then lysed with Optiphase Supermix cocktail (100 μL/well) and a clear sealant top was applied to the plate. The plate was left overnight in the dark at room temperature, centrifuged (1000 rpm, 1 min) and measured in a MicroBeta2 Microplate Counter (Perkin Elmer) (10 minutes pre-incubation, 2 min counts/well).
All data points on each binding curve were measured in duplicates. Each 96-well plate also contained four determinations of total and non-specific binding. Non-specific binding was determined in the presence of CGP 12177 and propranolol (10 μM). […] All data points are measured in counts per minute (CPM) and converted into disintegrations per minute (DPM) by dividing the count rate (CPM) with the counting efficiency of the instruments detector (57%). The numerical values were obtained by using the GraphPad Prism 7 programme and are given as -log K (pKi) in the table.

The mark [3] stands for this setting: agonist final concentration 1×10^−5, differentiated L6-myotubes, 50 nM 3H-2-deoxy-glucose.
The mark [4] stands for this setting: CHO cells stably expressing the human β2-adrenoceptor, ~1 nM 3H-CGP 12177, 2 hours at 37° C., read-out: Biological example 3: -log K (pKi), 3H-CGP 12177 whole cell β2 binding (converted).

Structures can show the parent of a compound that is named as a salt. Where two headings read alike, the source gives them in different places.

T1 sequence (P07550 whole entry): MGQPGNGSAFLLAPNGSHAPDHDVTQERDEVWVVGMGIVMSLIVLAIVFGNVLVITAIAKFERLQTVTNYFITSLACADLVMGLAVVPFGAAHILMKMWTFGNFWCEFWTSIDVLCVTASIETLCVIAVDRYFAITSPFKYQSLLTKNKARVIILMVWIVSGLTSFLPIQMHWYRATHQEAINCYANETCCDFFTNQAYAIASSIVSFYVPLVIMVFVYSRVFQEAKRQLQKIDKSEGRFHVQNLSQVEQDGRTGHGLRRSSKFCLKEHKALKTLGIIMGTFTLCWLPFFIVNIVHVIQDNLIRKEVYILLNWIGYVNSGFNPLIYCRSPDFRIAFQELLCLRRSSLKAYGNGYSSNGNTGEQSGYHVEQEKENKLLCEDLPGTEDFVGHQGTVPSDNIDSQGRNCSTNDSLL

Regarding `CCCCNCC(O)c1ccc(O)c(Cl)c1` (stereo not drawn) [Example 20, 4-(2-(Butylamino)-1-hydroxyethyl)-2-chlorophenol], the activation in the test with L6-myotubes [1] (setting [3]) came to 12%. The “Biological example 2: intracellular cAMP levels, % increase over the basal level” value in the test with L6-myotubes [2] is listed as −19%. Also, the Ki on human β2-adrenoceptor (setting [4]) is 3.16 µM.

For `Oc1ccc(C(O)CNCCCC2CCCCC2)cc1` (stereo not drawn) [Example 21, 4-(2-((3-Cyclohexylpropyl)amino)-1-hydroxyethyl)phenol], the activation with L6-myotubes [1] (setting [3]) amounted to 37%. Further, the “Biological example 2: intracellular cAMP levels, % increase over the basal level” value with L6-myotubes [2] is −16%. Further, the Ki at human β2-adrenoceptor (setting [4]) was 2 µM.

For the compound `Oc1ccc(C(O)CNCCC2CC2)cc1` (stereo not drawn) [Example 22, 4-(2-((2-Cyclopropylethyl)amino)-1-hydroxyethyl)phenol], the activation with L6-myotubes [1] (setting [3]) came out at 30%. Also, the “Biological example 2: intracellular cAMP levels, % increase over the basal level” value with L6-myotubes [2] turned out to be 20%. For the same compound, at human β2-adrenoceptor (setting [4]), the Ki was 12.6 µM.

In the case of `CCCCNCC(O)c1cc(O)cc(O)c1` (stereo not drawn) [Example 25, 5-(2-(Butylamino)-1-hydroxyethyl)benzene-1,3-diol hemisulphate], in the test on L6-myotubes [1] (setting [3]), the activation came out at 32%. In addition, the “Biological example 2: intracellular cAMP levels, % increase over the basal level” value with L6-myotubes [2] amounted to 115%. Further, the Ki at human β2-adrenoceptor (setting [4]) was 39.8 µM.

For the compound `CCCCNCC(O)c1cc(Cl)c(O)c(Cl)c1` (stereo not drawn) [Example 26, 4-(2-(Butylamino)-1-hydroxyethyl)-2,6-dichlorophenol], the activation in the test with L6-myotubes [1] was determined as 10%. In the test with L6-myotubes [2], the “Biological example 2: intracellular cAMP levels, % increase over the basal level” value was −0.3%. Besides, the Ki on human β2-adrenoceptor (setting [4]) is 25.1 µM.

With `CCCCNCC(O)c1cc(Cl)c(N)c(Cl)c1` (stereo not drawn) [Example 29, 1-(4-Amino-3,5-dichlorophenyl)-2-(butylamino)ethan-1-ol trifluoroacetate], in the test with L6-myotubes [1], the activation came to 48%. Also, the “Biological example 2: intracellular cAMP levels, % increase over the basal level” value in the test with L6-myotubes [2] is 222%. Besides, the Ki on human β2-adrenoceptor was 0.316 µM.

Consider `CCCCNCC(O)c1cc(Cl)c(N)c(C(F)(F)F)c1` (stereo not drawn) [Example 30, 1-(4-Amino-3-chloro-5-(trifluoromethyl)phenyl)-2-(butylamino)ethan-1-ol], for which the activation in the test with L6-myotubes [1] (setting [3]) was 50%. The “Biological example 2: intracellular cAMP levels, % increase over the basal level” value in the test with L6-myotubes [2] was determined as 231%. The compound further had a Ki at human β2-adrenoceptor of 0.0794 µM.

Regarding `CCCCNCC(O)c1ccc(Cl)c(O)c1` (stereo not drawn) [Example 32, 5-(2-(Butylamino)-1-hydroxyethyl)-2-chlorophenol], the activation in the test with L6-myotubes [1] (setting [3]) worked out at 53%. Further, in the test on L6-myotubes [2], the “Biological example 2: intracellular cAMP levels, % increase over the basal level” value turned out to be 371%. Also, the Ki at human β2-adrenoceptor (setting [4]) was 6.31 µM.

Take `CCCCNCC(O)c1ccc(Cl)c(N)c1` (stereo not drawn) [Example 34, 1-(3-Amino-4-chlorophenyl)-2-(butylamino)ethan-1-ol]: the activation in the test on L6-myotubes [1] (setting [3]) amounted to 20%. In addition, the “Biological example 2: intracellular cAMP levels, % increase over the basal level” value in the test with L6-myotubes [2] worked out at 0%. Further, on human β2-adrenoceptor (setting [4]), the Ki was 3.16 µM.

With `CCCCNCC(O)c1cc(F)c(N)c(F)c1` (stereo not drawn) [Example 35, 1-(4-Amino-3,5-difluorophenyl)-2-(butylamino)ethan-1-ol], in the test with L6-myotubes [1] (setting [3]), the activation came out at 65%. The “Biological example 2: intracellular cAMP levels, % increase over the basal level” value in the test with L6-myotubes [2] stood at 6536%. Also, the Ki at human β2-adrenoceptor (setting [4]) is 3.98 µM.
